# Data as given in US6265177A, “Enzyme assay for mutant firefly luciferase” (priority 1997, dated 2001).
# Assays:
# Type in all cases: biochemical
# Conditions in all cases: 21° C., 20 mM Tricine pH 7.8, 470 μM D-luciferin, ATP 6.25-800 μM, crude cell extract
# [1] = target: T1, Photinus pyralis luciferase, recombinant wild type (r Wild Type), luc gene SEQ ID NO: 1 (Photinus pyralis, UniProt P08659); assay: Luciferase assay of Km for MgATP, recombinant wild type
# T1 construct: made in house; host or cells: E. coli JM109, crude lysed cell extract, plasmid pPW601a
# Description: (§1) CELL CULTURE AND EXTRACTION: E. coli JM109 transformants were grown to an OD600 =1.0. Aliquots of cells expressing mutant luciferases from plasmid pPW601a, were subjected to lysis as described in the Promega technical bulletin and the lysed extracts were then stored on ice prior to assay.
# (§2) ASSAY OF Km OF MUTANT LUCIFERASES: luciferase assays were performed at 21° C. using 100 μl of assay buffer (20 mM Tricine pH 7.8 containing 2.0 mM MgSO4, 0.1 mM EDTA, 33 mM dithiotheitol, 470 μM D-luciferin and ATP in the concentration range 6.25-800 μM). Each assay contained 5-10 μl of crude cell extract.
# (§3) Such plots kan be used to determine the Km.
# [2] = target: T2, Photinus pyralis luciferase mutant H245A (His245Ala) (Photinus pyralis, UniProt P08659, H245A); assay: Luciferase assay of Km for MgATP, mutant H245A
# T2 construct: made in house; host or cells: E. coli JM109, crude lysed cell extract, plasmid pPW601a
# Description: (§4) SITE DIRECTED MUTAGENESIS: Three mutagenic oligonucleotides were used to create the mutations H245A, N and Q (Ala, Asn, or Gln--see Seq ID Nos. 2, 3 & 4). The equivalent wild-type sequence is shown at Seq ID No. 5. […] The mutagenesis was carried out in accordance with the kit instructions of kit supplied by Clontech laboratories Inc, Palo Alto, Calif. USA.
# as §1, §2, §3
# [3] = target: T3, Photinus pyralis luciferase mutant H245N (His245Asn) (Photinus pyralis, UniProt P08659, H245N); assay: Luciferase assay of Km for MgATP, mutant H245N
# T3 construct: made in house; host or cells: E. coli JM109, crude lysed cell extract, plasmid pPW601a
# Description: as §4, §1, §2, §3
# [4] = target: T4, Photinus pyralis luciferase mutant H245Q (His245Gln), SEQ ID NO: 6 (Photinus pyralis, UniProt P08659, H245Q); assay: Luciferase assay of Km for MgATP, mutant H245Q
# T4 construct: ID No. 6; made in house; host or cells: E. coli JM109, crude lysed cell extract, plasmid pPW601a
# Description: as §4
# The amino acid sequence of H245Q is shown in Seq. ID No. 6.
# as §1, §2, §3
# [5] = target: Photinus pyralis luciferase thermostable mutant A215L (printed A21SL) (Photinus pyralis, UniProt P08659, A215L); assay: Luciferase assay of Km for MgATP, thermostable mutant A215L
# Description: as §1, §2, §3
# *A215L is a thermostable mutant in which amino acid 215 is substituted with
# […] (see WO 96/22376 - SECRETARY OF STATE FOR DEFENCE).
# T2 sequence (P08659 whole entry H245A): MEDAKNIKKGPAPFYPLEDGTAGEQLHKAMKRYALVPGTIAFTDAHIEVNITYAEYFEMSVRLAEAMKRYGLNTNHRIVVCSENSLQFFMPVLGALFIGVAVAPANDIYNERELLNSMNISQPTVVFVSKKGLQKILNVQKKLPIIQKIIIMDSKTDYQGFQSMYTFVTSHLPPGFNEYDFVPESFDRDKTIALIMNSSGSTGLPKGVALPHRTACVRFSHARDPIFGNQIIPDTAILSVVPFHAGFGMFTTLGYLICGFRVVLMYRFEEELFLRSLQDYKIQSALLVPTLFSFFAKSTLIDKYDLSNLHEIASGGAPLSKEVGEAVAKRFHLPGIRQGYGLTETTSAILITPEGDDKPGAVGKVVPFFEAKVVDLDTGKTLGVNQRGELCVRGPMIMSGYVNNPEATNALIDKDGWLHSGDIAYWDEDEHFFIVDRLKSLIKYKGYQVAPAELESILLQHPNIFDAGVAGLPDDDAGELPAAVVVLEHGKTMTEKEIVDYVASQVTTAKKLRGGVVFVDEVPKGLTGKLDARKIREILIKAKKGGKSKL
# T1 sequence (P08659 whole entry): as the sequence (P08659 whole entry H245A) above, with A245H counted along it
# T3 sequence (P08659 whole entry H245N): as the sequence (P08659 whole entry H245A) above, with A245N counted along it
# Chain of Photinus pyralis luciferase thermostable mutant A215L (printed A21SL) (P08659 whole entry A215L): as the sequence (P08659 whole entry H245A) above, with A215L, A245H counted along it
# T4 sequence (P08659 whole entry H245Q): as the sequence (P08659 whole entry H245A) above, with A245Q counted along it
structure (smiles),measurement,setting,value
Nc1ncnc2c1ncn2[C@@H]1O[C@H](COP(=O)(O)OP(=O)(O)OP(=O)(O)O)[C@@H](O)[C@H]1O [MgATP],Km,[1],66 µM
same,Km,[2],442 µM
same,Km,[3],623 µM
same,Km,[4],1340 µM
same,Km,[5],65 µM
